Source: patent US20040097422A1, “Methods of use for tripeptidyl peptidase II inhibitors as anticancer agents” (priority 2002, published 2004)
Entries after “also recorded” stand apart in the source; their conditions may differ. Residues, ends and D or L forms follow the SMILES beside them. *: point of attachment. CH2Cl = ClC*

How the values were obtained:
Type in all cases: cell-based, human
[1] = system: U20S/centrin-GFP cells; assay: Abnormal centriole numbers in transiently transfected U20S/centrin-GFP cells after inhibitor treatment
Text: (§1) Cell Culture and Transfections. Normal human keratinocytes (NHKs) were isolated from neonatal foreskins and cultured as described previously (Jones, et al. 1997 Genes Dev 11, 2101-11). NHKs were transiently transfected using FuGENE 6 (Roche Molecular Biochemicals, Indianapolis, Ind.) according to manufacturer's instructions. The human osteosarcoma cell line U20S was obtained from the American Type Culture Collection (ATCC) and maintained in Dulbecco's modified Eagle medium (DMEM) supplemented with 10% fetal bovine serum, 50 units/ml penicillin and 50 μg/ml streptomycin. Stable populations expressing centrin-GFP were generated by transfecting U20S cells with 10 μg of a centrin-GFP construct using calcium phosphate co-precipitation (Chen, et al. 1987 Mol Cell Biol 7, 2745-2752) and expansion of stable clones after G418 selection. All transient transfection experiments in U20S/centrin-GFP cells were performed using calcium phosphate coprecipitation (Chen, 1987 Mol Cell Biol 7, 2745-2752). Expression plasmids used were c-Myc, E2F-1, HPV-16 E7, HPV-16 E6, or a hemagglutinin-tagged dominant-negative DP1 mutant (DP 1-HA). Empty vector controls (pCMVneo) were included in all experiments. In all transient transfection experiments, cells were co-transfected with either farnesylatable green fluorescent protein (GFP), DsRed fluorescent protein, or cyan fluorescent protein (CFP; all from Clontech, Inc., Palo Alto, Calif.) as indicated and only cells expressing the respective fluorescent protein were evaluated. The human Burkitt's lymphoma cell line GA-10 was obtained from ATCC and maintained in RPMI 1640 medium containing 10 mM HEPES and supplemented with 10% fetal bovine serum, 50 units/ml penicillin and 50 μg/ml streptomycin. Adapted GA-10 cells were obtained by cultivation of cells in the presence of 1 μM clastolactacystin β-lactone (CLBL; Sigma Corp., St. Louis, Mo.) or 0.1% dimethyl sulfoxide (DMSO; ICN, Inc., Costa Mesa, California).
Proteasome and TPPII inhibition. U20S/centrin-GFP cells were transiently transfected with expression plasmids as indicated using calcium phosphate coprecipitation, washed with PBS 14 hours after transfection, incubated in normal growth media for 8 hours, and incubated in the presence of the inhibitor for another 24 hours. For proteasome inhibition, clastolactacystin β-lactone (CLBL; Sigma Corp.) was used at a […] concentration dissolved in DMSO. The TPPII inhibitor H-Ala-Ala-Phe-chloromethylketone (AAF-CMK; Sigma Corp.) was used at a 1 or 10 μM concentration, respectively, dissolved in DMSO. TPPII inhibitors such as AAF-MCA (ala-ala-phe-methylcoumarin amide) are available from Peptides International, Inc., Louisville, Ky. […] Solvent controls (DMSO or water) were included in all experiments.
Whether this observed increase of cells with abnormal centrosome numbers results from a primary duplication error was further addressed by analyzing the ability of c-Myc to induce abnormal centriole synthesis under transient conditions. Centriole number abnormalities induced by c-Myc were compared to those obtained with different oncogenic stimuli which have been reported previously to deregulate centrosome duplication (Duensing, 2000 Proc Natl Acad USA 97, 10002-7). Besides c-Myc, each of HPV-16 E7, the cooperating oncogene HPV-16 E6, and E2F-1 were included in these experiments. U20S/centrin-GFP cells were transiently transfected with expression plasmids as indicated, and mitochondrial DsRed fluorescent protein was used as a transfection marker (FIGS. 2c,d). Since duplication of centrioles prior to a cell division gives rise to four centrioles, cells with more than four centrioles were considered to have an abnormal number of centrioles.
Analogous to cell cycle progression, centrosome duplication requires activity of the ubiquitin/proteasome machinery (Freed, et al. 1999 Gene Dev 13, 2242-57). […]

[2] = system: U20S/centrin-GFP cells; assay: DNA content / cell cycle profile by propidium iodide flow cytometry; settings: 10 μM, 24 hours
Method: Flow cytometry. DNA content of cells was analyzed by propidium iodide staining followed by flow cytometry as described previously (Thompson, et al. 1997 Oncogene 15, 3025-35).

[3] = system: TPPII; assay: TPPII protein level in adapted GA-10 cells (immunoblot); settings: GA-10 cells adapted to 1 μM CLBL
Method: Immunological Methods. Immunoblot analysis was performed as described previously (Jones et al., 1997). Antibodies used were directed against c-Myc (9E10; Covance/Babco, Berkeley, California), p53 (Ab-6; Oncogene Research Products, Inc., San Diego, Calif.), HPV-16 E7 (ED17; Santa Cruz Biotechnology, Inc., Santa Cruz, California), E2F-1 (C-20; Santa Cruz), HA (12CA5; Boehringer Mannheim, Mannheim, Germany), tripetidyl peptidase II (OEM Concepts, Inc.; Toms River, New Jersey), or Actin (C-2, Santa Cruz).
Based on observations herein that TPPII is required for c-Myc induced abnormal centriole duplication, the effect of growth of cells in the presence of a proteasome inhibitor on altered centrosome numbers, control of centrosome duplication, and cell viability was examined. Cells of a human t(8;14) positive, Epstein-Barr virus (EBV) negative Burkitt's lymphoma cell line GA-10 were used. Cells were grown in the presence of 1 μM CLBL (proteosome inhibitor clastolactacystin β-lactone) or with 0.1% DMSO as a solvent control.

[4] = system: Burkitt's lymphoma cell line GA-10; assay: Viability of GA-10 cells grown with proteasome inhibitor (trypan blue exclusion)
Method: FIG. […] FIG. 5b is an immunoblot analysis of TPPII and c-Myc expression in GA-10 cells adapted to grow in the presence of 1 μM CLBL or 0.1% DMSO. FIG. 5c is a visualizations of centrosomes in GA-10 cells adapted to grow in the presence of 0.1% DMSO (c) or 1 μM CLBL right. Immunofluorescence for γ-tubulin is rhodamine red. Nuclei were stained with DAPI. […] Each bar indicates average+standard error of triplicate colony counts.
as §1, with “The human Burkitt's lymphoma cell line GA-10 was obtained from ATCC and maintained in RPMI 1640 medium containing 10 mM HEPES and supplemented with 10% fetal bovine serum, 50 units/ml penicillin and 50 μg/ml streptomycin. Adapted GA-10 cells were obtained by cultivation of cells in the presence of 1 μM clastolactacystin β-lactone (CLBL; Sigma Corp., St. Louis, Mo.) or 0.1% dimethyl sulfoxide (DMSO; ICN, Inc., Costa Mesa, California).” left out

[5] = system: GA-10 cells; assay: Abnormal centrosome numbers in GA-10 cells by γ-tubulin immunofluorescence; settings: GA-10 cells adapted to 1 μM CLBL; untreated 18.7%, DMSO 19.9%
Method: For immunofluorescence analysis, sections of formalin-fixed, paraffin-embedded tissue were processed as described previously (Duensing, 2000 Proc Natl Acad 801 USA 97, 10002-7). Cultured cells were either grown on coverslips or cytospin preparations were made from cells growing in suspension. Cells were fixed in 4% paraformaldehyde in PBS and permeabilized with 1% Triton-X 100 in PBS for 10 min each at room temperature. […] Ki-67 was detected using a mouse monoclonal antibody (clone Ki-67; Dako Cytomation California, Inc., Carpinteria, California) at a 1:100 dilution followed by a rhodomine red-labeled donkey anti-mouse secondary antibody as described above. […] Cells were analyzed using a Leica DMLB epifluorescence microscope equipped with a multiband and a CFP filter set (Omega Optical, Brattleboro, Vt.) and a Sony DKC5000 camera system. […]
The proportion of cells with abnormal centrosome numbers was determined using immunofluorescence microscopy for γ-tubulin. […]

[6] = system: CLBL-adapted GA-10 cells; assay: Soft agar colony formation (clonogenic assay); settings: 10 μM butabindide, one week
Method: Clonogenic assay. For assessment of soft agar colony formation, adapted GA-10 cells were suspended in 37° C.
(§2) Centrosome duplication is necessary for orderly progression through mitosis and re-entry in the cell cycle (Hinchcliffe, et al. 2001 Genes Dev 15, 1167-81) in most mammalian cells. Whether TPPII activity is necessary for the growth of CLBL-adapted Burkitt's lymphoma cells was investigated.

[7] = system: CLBL-adapted Burkitt's lymphoma cells; assay: Mitotic spindle formation / centrosome function; settings: butabindide treated
Method: (§3) FIG. 5a is an analysis of viability of GA-10 cells grown in the presence of 1 μM CLBL or solvent control (0.1% DMSO) as determined by trypan blue exclusion. FIG. 5b is an immunoblot analysis of TPPII and c-Myc expression in GA-10 cells adapted to grow in the presence of 1 μM CLBL or 0.1% DMSO. FIG. 5c is a visualizations of centrosomes in GA-10 cells adapted to grow in the presence of 0.1% DMSO (c) or 1 μM CLBL right. Immunofluorescence for γ-tubulin is rhodamine red. Nuclei were stained with DAPI. […] Each bar indicates average+standard error of triplicate colony counts.
as §2

[8] = system: U20S/centrin-GFP cells; assay: Simultaneous Ki-67 proliferation and centriole number assay in c-Myc transfected cells; settings: 10 μM butabindide for 24 hours
Method: For immunofluorescence analysis, sections of formalin-fixed, paraffin-embedded tissue were processed as described previously (Duensing, 2000 Proc Natl Acad 801 USA 97, 10002-7). Cultured cells were either grown on coverslips or cytospin preparations were made from cells growing in suspension. Cells were fixed in 4% paraformaldehyde in PBS and permeabilized with 1% Triton-X 100 in PBS for 10 min each at room temperature. Cells were then blocked with 10% normal donkey serum (Jackson Immunoresearch, West Grove, Pa.) and incubated with a mouse monoclonal anti-γ-tubulin antibody (GTU-88; Sigma Corp.; St. Louis, Mo.) at a 1:2000 dilution overnight at 4° C. followed by a donkey anti-mouse rhodamine red conjugated secondary antibody (Jackson ImmunoResearch Laboratories, Inc., West Grove, Pa.) at a 1:100 dilution in PBS or a donkey anti-mouse FITC labeled secondary antibody at a 1:200 dilution in PBS for 2 hours at 37° C. Ki-67 was detected using a mouse monoclonal antibody (clone Ki-67; Dako Cytomation California, Inc., Carpinteria, California) at a 1:100 dilution followed by a rhodomine red-labeled donkey anti-mouse secondary antibody as described above. […] Cells were analyzed using a Leica DMLB epifluorescence microscope equipped with a multiband and a CFP filter set (Omega Optical, Brattleboro, Vt.) and a Sony DKC5000 camera system. […]

[9] = system: CLBL-adapted GA-10 cells; assay: Growth (viable cell number) of CLBL-adapted GA-10 cells; settings: 0.1, 1.0, 10, 100 or 500 μM butabindide
Method: as §3, §2

| Compound | Significance of decrease in abnormal centriole numbers, c-Myc transfected cells ([1]; 1 μM AAF-CMK, p≦0.05) | Changes in abnormal centriole numbers in E2F-1 or HPV-16 E7 expressing cells ([1]; E2F-1 or HPV-16 E7 transfected, AAF-CMK for 24 hours) | Proportion of c-Myc expressing cells with abnormal centriole numbers ([1]; c-Myc transfected, 1 and 10 μM AAF-CMK for 24 hours) | Cell cycle profile (DNA content) [2] | Decrease of abnormal centriole duplication driven by E2F-1 ([1]; E2F-1 transfected, 0.8 mM CLBL for 24 hours, p≦0.05) [fold] | Decrease of abnormal centriole duplication driven by HPV-16 E7 ([1]; HPV-16 E7 transfected, 0.8 mM CLBL for 24 hours, p≦0.01) [fold] | Proportion of cells with abnormal centriole numbers in cells expressing c-Myc ([1]; c-Myc transfected, 0.8 mM CLBL for 24 hours) | Protein levels of TPPII [3] | Cell viability of GA-10 cells ([4]; 1 μM CLBL) | Time until cell survival was restored ([4]; 1 μM CLBL) [days] | Cell viability of GA-10 cells at higher concentrations ([4]; higher concentrations of CLBL than 1 μM) | Proportion of cells with abnormal centrosome numbers [5] [%] | Number of c-Myc expressing cells with abnormal centriole numbers ([1]; c-Myc transfected, butabindide increasing concentrations up to 10 μM, 24 hours, p≦0.001) | Colony formation in soft agar [6] | Spindle formation in treated cells [7] | Cells unable to nucleate a microtubule spindle ([7]; 44% without) [%] | Ki-67 negative growth arrested cells [8] | Number of c-Myc expressing cells with abnormal centriole numbers (mostly Ki-67 positive) ([8]; CFP transfection marker) | Growth of CLBL-adapted GA-10 cells [9] |
| --- | --- | --- | --- | --- | --- | --- | --- | --- | --- | --- | --- | --- | --- | --- | --- | --- | --- | --- | --- |
| C[C@H](N)C(=O)N[C@@H](C)C(=O)N[C@@H](Cc1ccccc1)C(=O)CCl [AAF-CMK, H-Ala-Ala-Phe-chloromethylketone] (H-Ala-Ala-Phe-CH2Cl) | statistically significant | not significant | Reduction of the proportion of c-Myc expressing cells with abnormal centriole numbers | neither treatment of cells with 10 μM AAF-CMK, nor with 10 μM butabindide, was found to substantially alter the cell cycle profile |  |  |  |  |  |  |  |  |  |  |  |  |  |  |  |
| CC(C)[C@H](O)[C@@]12NC(=O)[C@H](C)[C@@H]1OC2=O [CLBL, clastolactacystin β-lactone] |  |  |  |  | 1.7 | 2 | did not significantly reduce | increased protein levels of TPPII | marked decrease of cell viability | ≤ 10 | massive cell death | 19.4 |  |  |  |  |  |  |  |
| CCCCNC(=O)[C@@H]1Cc2ccccc2N1C(=O)[C@@H](N)CC [butabindide] |  |  |  | neither treatment of cells with 10 μM AAF-CMK, nor with 10 μM butabindide, was found to substantially alter the cell cycle profile |  |  |  |  |  |  |  |  | dose-dependent and statistically highly significant reduction; also recorded: completely blocks abnormal centriole duplication | significantly suppressed colony formation | abrogation of spindle formation | 66 | major increases of Ki-67 negative growth arrested cells were not observed | decrease in the number of c-Myc expressing cells with abnormal centriole numbers | reduced the growth of CLBL-adapted GA-10 cells in a dose dependent manner |
